Source: EP2559435A1, “Rotigotine in the treatment of hemispatial neglect, stroke and deficits following stroke” (UCB Pharma GmbH, priority 2011, dated 2013)
Like-named read-outs stand apart in the source and are kept apart here.

What was measured:
[1] = system: patients with hernispatial neglect and unilateral weakness following right hemisphere stroke; experiment: Vertical Corsi spatial working memory task, clinical trial; format: in vivo; conditions: in some patients
Description: (§1) A commercially available rotigotine TTS has been tested in a double-blind, randomised, placebo controlled trial of the dopamine agonist rotigotine in 16 patients aged over 18 years with hernispatial neglect and unilateral weakness following right hemisphere stroke.
(§2) Patients were assessed with a battery of standardised neglect tests, as well as with tests of working memory, selective and sustained attention and motor function. A replicated ABA double-blind, placebo-controlled N-of-1 randomised design (Edgington E, Onghena P. Randomization Tests (Statistics: a Series of Textbooks and Monographs). 4th ed. Chapman & Hall/CRC: 2007), which allows to evaluate the effectiveness of an intervention in small sample sizes. Each patient's performance was measured in three phases, each consisting of several assessment sessions: before treatment (phase A1), while receiving transdermal rotigotine (phase B) and after discontinuation of the drug - post treatment phase (phase A2). The exact duration of each phase was randomised across patients. […]
(§3) Phase A1 started on session 1 and its duration was randomised (across individuals) to between 5 and 9 days. […] Finally, phase A2, when patients were assessed after the discontinuation of rotigotine, was randomised to begin between sessions 13 and 17, and it lasted for the remaining 4 to 8 sessions. […]

[2] = system: patients with hernispatial neglect and unilateral weakness following right hemisphere stroke; experiment: Selective and sustained attention (vigilance) task, clinical trial; format: in vivo
Description: as §1
(§4) Patients were assessed with a battery of standardised neglect tests, as well as with tests of working memory, selective and sustained attention and motor function. A replicated ABA double-blind, placebo-controlled N-of-1 randomised design (Edgington E, Onghena P. Randomization Tests (Statistics: a Series of Textbooks and Monographs). 4th ed. Chapman & Hall/CRC: 2007), which allows to evaluate the effectiveness of an intervention in small sample sizes. Each patient's performance was measured in three phases, each consisting of several assessment sessions: before treatment (phase A1), while receiving transdermal rotigotine (phase B) and after discontinuation of the drug - post treatment phase (phase A2). The exact duration of each phase was randomised across patients. Performance on rotigotine was compared with the pre-treatment baseline and post-treatment follow-up phases.
(§5) The effects of the drug were evaluated for the whole group of 16 patients, and, separately for two subgroups with different extent of involvement of the prefrontal cortex in the stroke lesion. The subgroups are defined according to the extent of involvement of the prefrontal cortex in the stroke lesion: a minimal prefrontal involvement subgroup (0%-15% of the prefrontal cortex affected) and an extensive prefrontal subgroup (33%-55% of the prefrontal cortex affected).
Phase A1 started on session 1 and its duration was randomised (across individuals) to between 5 and 9 days. Observations during this phase established the baseline performance. […] Finally, phase A2, when patients were assessed after the discontinuation of rotigotine, was randomised to begin between sessions 13 and 17, and it lasted for the remaining 4 to 8 sessions.
The subject had to identify high- or low- sallence targets among non targets on either side. % correct and reaction times are measured, further described in Barcelo et al. Nature Neuroscience 2000 3:399-403.
Participants detected targets (inverted triangles) among sequences of distractors (upright triangles) randomly presented to the ipsilesional and contralesional visual fields. […]
As a measure of selective attention, the ratio of the reaction time (RT) to high visual salience targets over the RT to low visual salience targets was used. Furthermore, using this task, sustained attention was quantified over time, by measuring the difference in RT and % correct responses between the first and the second half of each experimental session. […]

[3] = system: patients with hernispatial neglect and unilateral weakness following right hemisphere stroke; experiment: Motricity Index (motor function on the affected side), clinical trial; format: in vivo; conditions: in some patients
Description: as §1, §2, §3

[4] = system: patients with hernispatial neglect and unilateral weakness following right hemisphere stroke; experiment: Mesulam cancellation (visual search) task of hemispatial neglect, clinical trial; format: in vivo
Description: as §1, §4, §5
Phase A1 started on session 1 and its duration was randomised (across individuals) to between 5 and 9 days. Observations during this phase established the baseline performance. Phase B, when rotigotine was administered, could commence on day 6 to day 10, and its duration was a minimum of 7 and a maximum of 11 sessions. During treatment phase, a rotigotine 9 mg patch (4mg/24hr transdermal absorption) was applied daily and worn for 24 hours a day. Finally, phase A2, when patients were assessed after the discontinuation of rotigotine, was randomised to begin between sessions 13 and 17, and it lasted for the remaining 4 to 8 sessions.
Each patient was randomly assigned a pattern of onset and duration of the treatment and baseline phases, within the duration limits described above. In this example, the patient had 6 baseline assessments (phase A1, sessions 1-6), followed by 8 days on rotigotine (sessions 7-14) and 6 follow-up assessments (phase A2, sessions 15-20) after discontinuation of the drug. […] Mid-grey depicts any additional sessions in phases A1 and A2 when the patient received placebo patches. Some other possible permutations of pre-treatment, treatment and post-treatment phases within the constraints of the design are shown in figure 1b. The actual difference in performance between treatment (B) and the off-treatment phases (A1 and A2) was ranked against the differences between phases produced by all other possible combinations of treatment allocation, given the limits in phase onset and duration. In total, there were 15 possible permutations.
This visuospatial scanning test-further described in Mesulam, M.-M. Principles of Behavioural Neurology; tests of directed attention and memory (Davis, Philadelphia, 1985) - with a cluttered array of symbols is performed on A3 sheets. In this test visual target objects are identified among distracters; targets identified are marked by the participant (black circles in fig. 2). There was a 2 minutes time limit for this task. […] Furthermore, on rotigotine, there was an improvement in the spatial bias of the responses, measured as the proportion of the targets identified on the left when compared to those identified on the right. In the minimal prefrontal involvement subgroup, rotigotine had again a significant positive effect in the number of targets identified on the left. […]

[5] = system: patients with hernispatial neglect and unilateral weakness following right hemisphere stroke; experiment: Touchscreen cancellation task of hemispatial neglect, clinical trial; format: in vivo; conditions: group of all 16 patients; on rotigotine vs before treatment onset
Description: as §1, §2, §3

[6] = system: neglect patients; conditions: cited from earlier work

CCCN(CCc1cccs1)C1CCc2c(O)cccc2C1 (single isomer, unassigned; (-)) [rotigotine, (-)-5,6,7,8-tetrahydro-6-[propyl-[2-(2thienyl)ethyl]-amino]-1-naphthalenol]
spatial working memory (spatial span) [1]: improved spatial working memory | ratio of RT to high salience vs low salience targets ([2]; entire group, left sided targets, during treatment vs pre-treatment baseline): significant increase | ratio of RT to high salience vs low salience targets ([2]; entire group, left sided targets, treatment vs post-treatment baseline or average of both off-treatment phases): only marginal | ratio of RT to high salience vs low salience targets ([2]; extensive prefrontal subgroup, overall for both left and right-sided targets): significant beneficial effect | ratio of RT to high salience vs low salience targets ([2]; minimal prefrontal subgroup (e.g. left sided targets, comparison with off-treatment average)): no significant effect | motor function on the affected side (Motricity Index of the affected arm, leg and side) [3]: improved motor function on the affected side | number of targets found on the left side ([4]; entire group of 16 patients, on rotigotine vs pre- and post-treatment phases averaged or post-treatment phase alone): significantly higher | difference on- and off-treatment in the number of targets found on the left side relative to baseline ([4]; entire group of 16 patients, rotigotine 9 mg patch (4mg/24hr) daily, actual treatment allocation higher than mean difference of all possible permutations): 12.8% | effect size: less rightward bias relative to baseline (spatial bias in visual search) ([4]; entire group of 16 patients, rotigotine 9 mg patch (4mg/24hr) daily, actual treatment allocation in comparison to all possible permutations): 8.1% | spatial bias in visual search ([4]; entire group, on rotigotine vs post-treatment phase or both off-treatment phases): improved significantly | decrease in the number of targets found in a smaller area on the right hand side ([4]; entire patient group, during treatment): not statistically significant | spatial bias ([4]; extensive prefrontal group, on rotigotine): improved significantly | number of left targets found ([4]; extensive prefrontal subgroup (33%-55% of prefrontal cortex affected), on rotigotine): did not reach significance | number of targets identified in total ([4]; group of all 16 patients, on rotigotine): significantly larger number of targets | number of left targets found ([4]; minimal prefrontal subgroup (0%-15% of prefrontal cortex affected), on rotigotine): significantly higher | targets identified [5]: more targets were identified

CN1CCc2cccc3c2[C@H]1Cc1ccc(O)c(O)c1-3 [Apomorphine]
effect on hemispatial neglect ([6]; four neglect patients tested (Geminiani et al. 1998)): transient improvement in three out of four neglect patients

NC12CC3CC(CC(C3)C1)C2 [amantadine]
effect on hemispatial neglect ([6]; small-scale trial in four neglect patients (Buxbaum et al. 2007)): did not demonstrate any beneficial effect
